Patent US11828750B2, “Material for screening for compound acting on ION channel and use thereof” (PUBLIC UNIVERSITY CORPORATION NAGOYA CITY UNIVERSITY, priority 2016, dated 2023)

Assays:
hTREK-1 = target: T1, hTREK-1 (Homo sapiens, UniProt O95069); assay: Cell death assay (MTT method) in TREK-1 test cells (hTREK-1#Kir 2.1#mutated Nav HEK293 cells); type: cell-based; details: 37° C.
T1 construct: expressed in transfected cells; host or cells: HEK293 cells stably expressing Kir 2.1 and Nav 1.5 IFM/QQQ; hTREK-1 in pcDNA3.1(+)
T1 sequence (O95069 1-422 isoform O95069-3): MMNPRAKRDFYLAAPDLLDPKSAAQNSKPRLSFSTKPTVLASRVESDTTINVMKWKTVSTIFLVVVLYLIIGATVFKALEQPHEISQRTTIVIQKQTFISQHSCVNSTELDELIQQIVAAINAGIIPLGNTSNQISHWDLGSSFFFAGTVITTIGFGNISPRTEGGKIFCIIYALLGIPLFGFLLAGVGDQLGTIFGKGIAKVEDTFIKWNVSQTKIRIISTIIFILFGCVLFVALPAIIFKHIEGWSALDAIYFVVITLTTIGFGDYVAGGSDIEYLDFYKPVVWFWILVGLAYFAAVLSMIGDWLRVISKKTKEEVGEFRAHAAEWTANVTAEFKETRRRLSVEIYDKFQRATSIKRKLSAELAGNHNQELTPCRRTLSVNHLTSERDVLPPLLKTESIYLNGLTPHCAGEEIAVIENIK
Procedure: (Cell Culture and Gene Insertion) Human-derived embryonic kidney cells (HEK293 cells) were purchased from the Health Sciences Research Resource Bank (HSRRB). 10% fetal bovine serum (FBS, Gibco Corp.) was added thereto followed by culturing at 37° C. in 5% CO2 in Dulbecco's Modified Eagle Medium (D-MEM, Wako Pure Chemical Industries, Ltd.) containing 100 U/ml penicillin (Wako Pure Chemical Industries, Ltd.) and 100 μg/ml streptomycin (Meiji Seika Kaisha, Ltd.). pcDNA3.1/Kir 2.1, obtained by subcloning human-derived Kir 2.1 (NM #000891) in pcDNA3.1(+) (Invitrogen Corp.), was inserted using Lipofectamine 2000 (Invitrogen Corp.) followed by culturing in medium obtained by adding 0.2 mg/ml Zeocin (Invitrogen Corp.) to the above-mentioned D-MEM medium and then cloning Zeocin resistant cells to prepare Kir 2.1 constantly expressing cells (HEK#Kir). In addition, the deactivation mutant Nav 1.5 IFM/QQQ was inserted into the Kir 2.1 constantly expressing cells using the same method (HEK#Kir#mutated Nav).
Proceeding as above, hTREK-1#Kir 2.1 #mutated Nay cells (referred to herebelow as TREK-1 test cells) were prepared by subcloning hTREK-1 (GenBank Accession Number: NM #001017424), a type of human-derived K2P channel, in pcDNA3.1(+) and inserting it in the previously prepared Kir 2.1 #mutated Nav cells. […]

hTASK-3 = target: T2, hTASK-3 (Homo sapiens, UniProt Q9NPC2); assay: Cell death assay in TASK-3 test cells (hTASK-3 transiently expressing Kir 2.1#mutated Nav cells); type: cell-based; details: 200 μM Ba ion
T2 construct: expressed in transfected cells; host or cells: HEK293 Kir 2.1 + mutated Nav cells, transient expression via baculovirus vector
T2 sequence (Q9NPC2 whole entry): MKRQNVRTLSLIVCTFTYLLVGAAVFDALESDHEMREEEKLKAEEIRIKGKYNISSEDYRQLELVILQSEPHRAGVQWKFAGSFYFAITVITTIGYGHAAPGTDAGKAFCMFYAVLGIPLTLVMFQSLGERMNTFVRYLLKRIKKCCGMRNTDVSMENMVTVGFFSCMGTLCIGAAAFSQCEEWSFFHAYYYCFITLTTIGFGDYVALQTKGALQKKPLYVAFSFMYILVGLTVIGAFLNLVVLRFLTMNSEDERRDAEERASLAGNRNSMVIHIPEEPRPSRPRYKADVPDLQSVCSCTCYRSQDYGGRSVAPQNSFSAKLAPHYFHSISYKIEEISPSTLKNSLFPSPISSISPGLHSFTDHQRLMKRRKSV
Excerpt: Sf-900 III SFM (Thermo Fisher Scientific) was used for the culture medium for baculovirus vector production, and Dulbecco's Modified Eagle Medium (D-MEM) culture medium supplemented with 10% fetal bovine serum (FBS) was used as the culture medium for the test cells.

hTASK-1 = assay: Cell death assay in TASK-1 test cells (hTASK-1 transiently expressing Kir 2.1#mutated Nav cells); type: cell-based, human
Procedure: With the TREK-1 test cells, the culture medium was replaced with measurement buffer (137 mM NaCl, 5.9 mM KCl, 2.2 mM CaCl2, 1.2 mM MgCl2, 14 mM glucose, 10 mM HEPES (pH 7.4 with NaOH), this also applies in the following) and BaCl2 was added to provide 200 μM Ba ion, a Kir 2.1 inhibitor. This was followed by incubation for approximately 12 hours under conditions of 37° C., atmospheric pressure, and 5% CO2 and monitoring of cell death. […] The measurement of cell death was carried out using the MTT method with reference to a paper by the present inventors (Yamazaki, D., et al., Am J Physiol Cell Physiol 300, C75-86, 2011).
hTASK-1 (the Δi20 mutant was used due to poor transfer to the cell membrane by the wild type, resulting in the problems of a small current and measurement difficulties. This mutant is reported to readily transfer to the membrane. Renigunta et al., Traffic 7:168-181, 2006) and hTASK-3 (GenBank Accession Number: NM #001282534), which are types of human-derived K2P channels, were subcloned in a baculovirus vector, a viral vector, and were inserted into the Kir 2.1 #mutated Nav cells prepared in Second Embodiment to prepare hTASK-1 transiently expressing TASK-1#Kir 2.1 #mutated Nav cells and hTASK-3 transiently expressing hTASK-3#Kir 2.1 #mutated Nav cells (referred to herebelow as TASK-1 test cells and TASK-3 test cells), respectively, which transiently expressed hTASK-1 and hTASK-3. Sf-900 III SFM (Thermo Fisher Scientific) was used for the culture medium for baculovirus vector production, and Dulbecco's Modified Eagle Medium (D-MEM) culture medium supplemented with 10% fetal bovine serum (FBS) was used as the culture medium for the test cells.
For TASK-3 this was the same as the literature value of 35 nM (Coburn et al., Chem Med Chem., 7(1), 123-33, 2012).

hSK4 = target: T3, hSK4 (Homo sapiens, UniProt O15554); assay: Cell death assay in SK4 test cells (Kir 2.1+IFM/QQQ+SK4 cells); type: cell-based; details: in the presence of 100 nM Ca ion
T3 construct: expressed in transfected cells; host or cells: HEK293 Kir 2.1 + mutated Nav cells, transient expression via baculovirus vector
Excerpt: (§1) hSK2 and hSK4, which are each one type of human-derived Ca ion-activated ion channel, were respectively subcloned in a baculovirus vector, which is a viral vector, and were inserted into the Kir 2.1 #mutated Nav cells prepared in Second Embodiment to prepare hSK2 transiently expressing Kir 2.1+IFM/QQQ+SK2 cells (referred to herebelow as SK2 test cells) and hSK4 transiently expressing Kir 2.1+IFM/QQQ+SK4 cells (referred to herebelow as SK4 test cells). Sf-900 III SFM (Thermo Fisher Scientific) was used for the culture medium for baculovirus vector production, and Dulbecco's Modified Eagle Medium (D-MEM) culture medium supplemented with 10% fetal bovine serum (FBS) was used as the culture medium for the test cells.

hSK2 = target: T4, hSK2 (Homo sapiens, UniProt Q9H2S1); assay: Cell death assay in SK2 test cells (Kir 2.1+IFM/QQQ+SK2 cells); type: cell-based
T4 construct: expressed in transfected cells; host or cells: HEK293 Kir 2.1 + mutated Nav cells, transient expression via baculovirus vector
Excerpt: as §1

TASK-1 = TASK-1 (Homo sapiens, UniProt O14649); details: Zou et al. 2010; read-out: reported IC50 for TASK-1; cited from earlier work
Sequence of TASK-1 (O14649 whole entry, species assumed): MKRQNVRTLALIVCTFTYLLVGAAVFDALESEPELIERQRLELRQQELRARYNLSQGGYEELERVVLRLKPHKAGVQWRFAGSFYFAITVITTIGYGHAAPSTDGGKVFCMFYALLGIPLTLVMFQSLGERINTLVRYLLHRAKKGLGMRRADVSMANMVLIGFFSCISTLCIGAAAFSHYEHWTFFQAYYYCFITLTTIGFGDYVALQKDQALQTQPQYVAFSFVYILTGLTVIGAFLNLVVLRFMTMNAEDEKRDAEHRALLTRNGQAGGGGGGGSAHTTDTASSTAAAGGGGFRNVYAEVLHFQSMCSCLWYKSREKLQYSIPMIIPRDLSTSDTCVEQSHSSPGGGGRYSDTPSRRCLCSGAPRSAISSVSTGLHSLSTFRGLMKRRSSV

Nc1ncnc2c1nc(Br)n2[C@@H]1O[C@@H]2COP(=O)(O)O[C@H]2[C@H]1O [8-Br-cAMP]
cell death on supply of TREK-1 inhibitor (hTREK-1; in the presence of 200 μM Ba ion, approximately 12 hours, MTT method): Cell death was observed

[Ba+2].[Cl-].[Cl-] [Ba ion, BaCl2]
cell death with Ba ion alone (hTREK-1; 200 μM Ba ion, TREK-1 test cells): cell death was not produced | cell death with Ba ion alone (hTASK-3): cell death was not produced | cell death with Ba ion alone (hTASK-1; 200 μM Ba ion): cell death was not produced

CCn1c(=O)[nH]c2cc(Cl)c(Cl)cc21 [DCEBIO, 5,6-dichloro-1-ethyl-1,3-dihydro-2H-benzimidazole-2-one]
cell death of SK4 test cells on addition of activator (hSK4): cell death of the SK4 test cells was inhibited

O=C1Nc2c(ccc(Cl)c2Cl)C1=NO [NS309, 3-oxime-6,7-dichloro-1H-indole-2,3-dione]
cell death of SK2 test cells on addition of activator (hSK2; in the presence of 100 nM Ca ion): cell death of the SK2 test cells was inhibited

c1cc2cc(c1)C[n+]1ccc(c3ccccc31)NCc1ccc(cc1)CNc1cc[n+](c3ccccc13)C2 [UCL1684]
effect of inhibitor on NS309-mediated inhibition of cell death (hSK2; added together with NS309, 100 nM Ca ion): the NS309-mediated inhibition of cell death was extinguished

ML365
IC50 (TASK-1): 12 nM | induction of cell death by inhibitor (hTASK-1; in the presence of 200 μM Ba ion): cell death was observed in a concentration-dependent regime | concentration above which a sharp increase in the induction of cell death occurred (hTASK-1; in the presence of Ba ion): > 11.5 nM
